According to patent EP2768830B1, “APOPTOSIS-INDUCING AGENTS FOR THE TREATMENT OF CANCER AND IMMUNE AND AUTOIMMUNE DISEASES” (AbbVie Inc., priority 2011, dated 2013):
Like-named read-outs stand apart in the source and are kept apart here.

Experiments:
[1] = target: GST-Bcl-xL (Homo sapiens, UniProt Q07817); conditions: read-out: TR-FRET binding Bcl-xL Ki
[2] = system: mouse FL5.12 cells transfected with Bcl-XL; assay: FL5.12 cellular assay (cell viability, CellTiter-Glo); assay type: cell-based; conditions: Mus musculus;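 also: each EC50 determination derived from duplicate measurements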
[3] = FL5.12 cells transfected with Bcl-XL, IL-3-depleted, 3% FBS assay media, 24 hours, CellTiter-Glo, read-out: FL5.12 Bcl-xL, - IL3, EC 50

Sequence of GST-Bcl-xL (Q07817 whole entry): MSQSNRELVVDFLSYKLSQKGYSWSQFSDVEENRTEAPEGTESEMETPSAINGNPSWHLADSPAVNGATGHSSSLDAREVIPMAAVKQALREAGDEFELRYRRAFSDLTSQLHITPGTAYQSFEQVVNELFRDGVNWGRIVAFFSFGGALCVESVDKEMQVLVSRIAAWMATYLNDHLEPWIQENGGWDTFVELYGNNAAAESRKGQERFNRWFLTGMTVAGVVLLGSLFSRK

Cc1c(-c2ccc(N3CCc4cccc(C(=O)Nc5nc6ccccc6s5)c4C3)nc2C(=O)O)cnn1C(CCN1CCOCC1)C1CCCCC1 (centres unmarked) [Example 152, 6-[8-(1,3-benzothiazol-2-ylcarbamoyl)-3,4-dihydroisoquinolin-2(1H)-yl]-3-{1-[1-cyclohexyl-3-(morpholin-4-yl)propyl]-5-methyl-1H-pyrazol-4-yl}pyridine-2-carboxylic acid]
Ki [1]: < 0.1 nM
EC50 [2, 3]: 1 nM

O=C(Nc1nc2ccccc2s1)c1cccc2c1CN(c1ccc(-c3ccc4c(cnn4Cc4ccccc4)c3)c(C(=O)O)n1)CC2 [Example 153, 6-[8-(1,3-benzothiazol-2-ylcarbamoyl)-3,4-dihydroisoquinolin-2(1H)-yl]-3-(1-benzyl-1H-indazol-5-yl)pyridine-2-carboxylic acid]
Ki [1]: 0.3 nM
EC50 [2, 3]: 587 nM

Cc1c(-c2ccc(N3CCc4cccc(C(=O)Nc5nc6ccccc6s5)c4C3)nc2C(=O)O)cnn1CC1CCCCO1 (centres unmarked) [Example 154, 6-[8-(1,3-benzothiazol-2-ylcarbamoyl)-3,4-dihydroisoquinolin-2(1H)-yl]-3-[5-methyl-1-(tetrahydro-2H-pyran-2-ylmethyl)-1H-pyrazol-4-yl]pyridine-2-carboxylic acid]
Ki [1]: < 0.1 nM
EC50 [2, 3]: 15 nM

Cc1c(-c2ccc(N3CCc4cccc(C(=O)Nc5nc6ccccc6s5)c4C3)nc2C(=O)O)cnn1CC1(OCCCN2CCOCC2)CCCCCC1 [Example 155, 6-[8-(1,3-benzothiazol-2-ylcarbamoyl)-3,4-dihydroisoquinolin-2(1H)-yl]-3-[5-methyl-1-({1-[3-(morpholin-4-yl)propoxy]cycloheptyl}methyl)-1H-pyrazol-4-yl]pyridine-2-carboxylic acid]
Ki [1]: < 0.1 nM
EC50 [2, 3]: 7 nM

COC1(Cn2ncc(-c3ccc(N4CCc5cccc(C(=O)Nc6nc7ccccc7s6)c5C4)nc3C(=O)O)c2C)CCCC(C)(C)C1 (centres unmarked) [Example 157, 6-[8-(1,3-benzothiazol-2-ylcarbamoyl)-3,4-dihydroisoquinolin-2(1H)-yl]-3-{1-[(1-methoxy-3,3-dimethylcyclohexyl)methyl]-5-methyl-1H-pyrazol-4-yl}pyridine-2-carboxylic acid]
Ki [1]: < 0.1 nM
EC50 [2, 3]: 0.3 nM

Cc1c(-c2ccc(N3CCc4cccc(C(=O)Nc5nc6ccccc6s5)c4C3)nc2C(=O)O)cnn1CC1(N2CCOCC2)CCCCC1 [Example 160, 6-[8-(1,3-benzothiazol-2-ylcarbamoyl)-3,4-dihydroisoquinolin-2(1H)-yl]-3-(5-methyl-1-{[1-(morpholin-4-yl)cyclohexyl]methyl}-1H-pyrazol-4-yl)pyridine-2-carboxylic acid]
Ki [1]: < 0.1 nM
EC50 [2, 3]: 14 nM

COC1(Cn2ncc(-c3ccc(N4CCc5cccc(C(=O)Nc6nc7ccccc7s6)c5C4)nc3C(=O)NS(C)(=O)=O)c2C)CCCC(C)(C)C1 (centres unmarked) [Example 162, N-(1,3-benzothiazol-2-yl)-2-(5-{1-[(1-methoxy-3,3-dimethylcyclohexyl)methyl]-5-methyl-1H-pyrazol-4-yl}-6-[(methylsulfonyl)carbamoyl]pyridin-2-yl)-1,2,3,4-tetrahydroisoquinoline-8-carboxamide]
Ki [1]: < 0.1 nM
EC50 [2, 3]: 5 nM

Cc1c(-c2ccc(N3CCc4cccc(C(=O)Nc5nc6ccccc6s5)c4C3C)nc2C(=O)O)cnn1CC1(C)CCCCC1 (centres unmarked) [Example 163, 6-[8-(1,3-benzothiazol-2-ylcarbamoyl)-1-methyl-3,4-dihydroisoquinolin-2(1H)-yl]-3-{5-methyl-1-[(1-methylcyclohexyl)methyl]-1H-pyrazol-4-yl}pyridine-2-carboxylic acid]
Ki [1]: 0.4 nM
EC50 [2, 3]: 211 nM

COC1(Cn2ncc(-c3ccc(N4CCc5cccc(C(=O)Nc6nc7ccccc7s6)c5C4)nc3C(=O)O)c2C)CCCCC1 [Example 165, 6-[8-(1,3-benzothiazol-2-ylcarbamoyl)-3,4-dihydroisoquinolin-2(1H)-yl]-3-{1-[(1-methoxycyclohexyl)methyl]-5-methyl-1H-pyrazol-4-yl}pyridine-2-carboxylic acid]
Ki [1]: < 0.1 nM
EC50 [2, 3]: 9 nM

COC1(Cn2nnc(-c3ccc(N4CCc5cccc(C(=O)Nc6nc7ccccc7s6)c5C4)nc3C(=O)O)c2C)CCCC(C)(C)C1 (centres unmarked) [Example 166, 6-[8-(1,3-benzothiazol-2-ylcarbamoyl)-3,4-dihydroisoquinolin-2(1H)-yl]-3-{1-[(1-methoxy-3,3-dimethylcyclohexyl)methyl]-5-methyl-1H-1,2,3-triazol-4-yl}pyridine-2-carboxylic acid]
Ki [1]: < 0.1 nM
EC50 [2, 3]: 30 nM

Cc1c(-c2ccc(N3CCc4cccc(C(=O)Nc5nc6ccccc6s5)c4C3)nc2C(=O)O)cnn1CC1(OCCN2CCS(=O)(=O)CC2)CCCCC1 [Example 167, 6-[8-(1,3-benzothiazol-2-ylcarbamoyl)-3,4-dihydroisoquinolin-2(1H)-yl]-3-[1-({1-[2-(1,1-dioxidothiomorpholin-4-yl)ethoxy]cyclohexyl}methyl)-5-methyl-1H-pyrazol-4-yl]pyridine-2-carboxylic acid]
Ki [1]: < 0.1 nM
EC50 [2, 3]: 81 nM

Cc1c(-c2ccc(N3CCc4cccc(C(=O)Nc5nc6ccccc6s5)c4C3)nc2C(=O)O)cc(C#N)n1CC1(N2CCOCC2)CCCCC1 [Example 168, 6-[8-(1,3-benzothiazol-2-ylcarbamoyl)-3,4-dihydroisoquinolin-2(1H)-yl]-3-(5-cyano-2-methyl-1-{[1-(morpholin-4-yl)cyclohexyl]methyl}-1H-pyrrol-3-yl)pyridine-2-carboxylic acid]
Ki [1]: < 0.1 nM
EC50 [2, 3]: 14 nM

Cc1c(-c2ccc(N3CCc4cccc(C(=O)Nc5nc6ccccc6s5)c4C3)nc2C(=O)O)cnn1CC1(OCCO)CCCCC1 [Example 169, 6-[8-(1,3-benzothiazol-2-ylcarbamoyl)-3,4-dihydroisoquinolin-2(1H)-yl]-3-(1-{[1-(2-hydroxyethoxy)cyclohexyl]methyl}-5-methyl-1H-pyrazol-4-yl)pyridine-2-carboxylic acid]
Ki [1]: < 0.1 nM
EC50 [2, 3]: 10 nM

COCC(COC1(Cn2ncc(-c3ccc(N4CCc5cccc(C(=O)Nc6nc7ccccc7s6)c5C4)nc3C(=O)O)c2C)CCCCCC1)OC (centres unmarked) [Example 170, 6-[8-(1,3-benzothiazol-2-ylcarbamoyl)-3,4-dihydroisoquinolin-2(1H)-yl]-3-(1-{[1-(2,3-dimethoxypropoxy)cycloheptyl]methyl}-5-methyl-1H-pyrazol-4-yl)pyridine-2-carboxylic acid]
Ki [1]: < 0.1 nM
EC50 [2, 3]: 0.5 nM

COCCOC1(Cn2c(C#N)cc(-c3ccc(N4CCc5cccc(C(=O)Nc6nc7ccccc7s6)c5C4)nc3C(=O)O)c2C)CCCCCC1 [Example 172, 6-[8-(1,3-benzothiazol-2-ylcarbamoyl)-3,4-dihydroisoquinolin-2(1H)-yl]-3-(5-cyano-1-{[1-(2-methoxyethoxy)cycloheptyl]methyl}-2-methyl-1H-pyrrol-3-yl)pyridine-2-carboxylic acid]
Ki [1]: < 0.1 nM
EC50 [2, 3]: 1 nM

Cc1c(-c2ccc(N3CCc4cccc(C(=O)Nc5nc6ccccc6s5)c4C3)nc2C(=O)O)cnn1CC1(OCC2COCCO2)CCCCCC1 (centres unmarked) [Example 173, 6-[8-(1,3-benzothiazol-2-ylcarbamoyl)-3,4-dihydroisoquinolin-2(1H)-yl]-3-(1-{[1-(1,4-dioxan-2-ylmethoxy)cycloheptyl]methyl}-5-methyl-1H-pyrazol-4-yl)pyridine-2-carboxylic acid]
Ki [1]: < 0.1 nM
EC50 [2, 3]: 0.1 nM

Cc1c(-c2ccc(N3CCc4cccc(C(=O)Nc5nc6ccccc6s5)c4C3)nc2C(=O)O)cnn1CC1(OCC(=O)N2CCOCC2)CCCCC1 [Example 174, 6-[8-(1,3-benzothiazol-2-ylcarbamoyl)-3,4-dihydroisoquinolin-2(1H)-yl]-3-[5-methyl-1-({1-[2-(morpholin-4-yl)-2-oxoethoxy]cyclohexyl}methyl)-1H-pyrazol-4-yl]pyridine-2-carboxylic acid]
Ki [1]: < 0.1 nM
EC50 [2, 3]: 210 nM

Cc1c(-c2ccc(N3CCc4cccc(C(=O)Nc5nc6ccccc6s5)c4C3)nc2C(=O)O)cnn1CC1(OCC(O)CO)CCCCCC1 (centres unmarked) [Example 175, 6-[8-(1,3-benzothiazol-2-ylcarbamoyl)-3,4-dihydroisoquinolin-2(1H)-yl]-3-(1-{[1-(2,3-dihydroxypropoxy)cycloheptyl]methyl}-5-methyl-1H-pyrazol-4-yl)pyridine-2-carboxylic acid]
Ki [1]: < 0.1 nM
EC50 [2, 3]: 33 nM

Cc1c(-c2ccc(N3CCc4cccc(C(=O)Nc5nc6ccccc6s5)c4C3)nc2C(=O)O)cc(C#N)n1CC1(N(C)C)CCCCC1 [Example 176, 6-[8-(1,3-benzothiazol-2-ylcarbamoyl)-3,4-dihydroisoquinolin-2(1H)-yl]-3-(5-cyano-1-{[1-(dimethylamino)cyclohexyl]methyl}-2-methyl-1H-pyrrol-3-yl)pyridine-2-carboxylic acid]
Ki [1]: < 0.1 nM
EC50 [2, 3]: 10 nM

Cc1c(-c2ccc(N3CCc4cccc(C(=O)Nc5nc6ccccc6s5)c4C3)nc2C(=O)O)cccc1N(C)C(=O)C1CCCCC1 [Example 177, 6-[8-(1,3-benzothiazol-2-ylcarbamoyl)-3,4-dihydroisoquinolin-2(1H)-yl]-3-{3-[(cyclohexylcarbonyl)(methyl)amino]-2-methylphenyl}pyridine-2-carboxylic acid]
Ki [1]: < 0.1 nM
EC50 [2, 3]: 24 nM

Cc1c(-c2ccc(N3CCc4cccc(C(=O)Nc5nc6ccccc6s5)c4C3)nc2C(=O)O)cnn1CC1(OCCS(C)(=O)=O)CCCC(C)(C)C1 (centres unmarked) [Example 178, 6-[8-(1,3-benzothiazol-2-ylcarbamoyl)-3,4-dihydroisoquinolin-2(1H)-yl]-3-[1-({3,3-dimethyl-1-[2-(methylsulfonyl)ethoxy]cyclohexyl}methyl)-5-methyl-1H-pyrazol-4-yl]pyridine-2-carboxylic acid]
Ki [1]: < 0.1 nM
EC50 [2, 3]: 0.2 nM

Cc1c(-c2ccc(N3CCc4cccc(C(=O)Nc5nc6ccccc6s5)c4C3)nc2C(=O)O)cccc1N(C)C(=O)C1(C)CCCCC1 [Example 179, 6-[8-(1,3-benzothiazol-2-ylcarbamoyl)-3,4-dihydroisoquinolin-2(1H)-yl]-3-(2-methyl-3-{methyl[(1-methylcyclohexyl)carbonyl]amino}phenyl)pyridine-2-carboxylic acid]
Ki [1]: < 0.1 nM
EC50 ([2]; FL5.12, 24 h, read-out: FL5.12 Bcl-xL, - IL3, EC 50 (nM)): 6 nM
